Laboratory results taken from doi:10.1101/2024.08.25.609621 (bioRxiv, 2024).
Several values for one entry are separate records, joined by “and”; a condition that tells them apart may be missing. Equal values may be shown once. Read-outs that look alike come from different tables or passages of the source.

Columns and labels:
[1] = target: SARS-CoV-2 NSP3 macrodomain (Mac1), P43 crystal form (Severe acute respiratory syndrome coronavirus 2, UniProt P0DTD1); type: binding; conditions: for PanDDA run, DMSO background map: 1-BDC / 1-BDC (PanDDA run, DMSO background map): event 1; for 1-BDC: PanDDA background density correction; for Total number of conformations: ligand conformations modeled in Mac1 crystal structure; for 2*(1-BDC) (%): occupancy estimate from PanDDA BDC; for X-ray crystallography: Binding site: site where the ligand is bound in the X-ray crystal structure; for Comment: comment on ligand modeling / Phe132 loop density
[2] = target: SARS-CoV-2 NSP3 macrodomain (Mac1) (Severe acute respiratory syndrome coronavirus 2, UniProt P0DTD1); test: biochemical; type: binding; conditions: for SARS CoV-2 macrodomain HTRF assay: Hillslope: dose-response fit; for IC50: read-out: SARS CoV-2 macrodomain HTRF assay: IC50
[3] = crystal soak 10 mM, P43 crystals
[4] = crystal soak 10 mM, DMSO background map
[5] = crystal soak concentration 10 mM, DMSO background map
[6] = crystal soak concentration 10 mM, P43 crystals

SMILES	Occupancy difference (refined_occupancy - 2*(1-BDC)) [1]	Refined ligand occupancy (%) [1] [%]	PanDDA run, DMSO background map: 1-BDC ([1]; DMSO background map)	1-BDC [1]	Total number of conformations [1]	2*(1-BDC) (%) [1] [%]	X-ray crystallography: Binding site [1]	Hill slope ([2]; HTRF dose-response fit, Mac1)	SARS CoV-2 macrodomain HTRF assay: Hillslope [2]	also measured
OC1(CNc2ncnc3[nH]ccc23)CCCC(C(F)(F)F)C1 (stereo not drawn) [AVI-4309]	0	40	0.2	0.2	1	40	Adenosine	1.4	1.4	Hit (PanDDA run, overall) [1, 3]: TRUE; Hit (PanDDA run, DMSO background map) [1, 4]: TRUE; 1-BDC (PanDDA run, DMSO background map) [1, 4]: 0.21
CC1(C)CCC(O)(CNc2ncnc3[nH]ccc23)CC1 [AVI-4310]	–	–	0.17	–	–	–	–	1.3	1.3	Modeling comment (PanDDA run, overall) ([1]; crystal soak 10 mM): Weak density, not modeled; Hit (PanDDA run, overall) [1, 3]: TRUE; Hit (PanDDA run, DMSO background map) [1, 4]: TRUE; 1-BDC (PanDDA run, DMSO background map) [1, 4]: 0.14
OC1(CNc2ncnc3[nH]ccc23)CCCOC1 (stereo not drawn) [AVI-4311]	0	50	0.3	0.25	1	50	Adenosine	1.4	1.4	Hit (PanDDA run, overall) [1, 3]: TRUE; Hit (PanDDA run, DMSO background map) [1, 4]: TRUE; 1-BDC (PanDDA run, DMSO background map) [1, 4]: 0.25
CC1CCC(O)(CNc2ncnc3[nH]ccc23)CC1 (stereo not drawn) [AVI-4312]	0	44	0.22 and 0.3	0.22	1	44	Adenosine	1.2	1.2	–
OC1(CNc2ncnc3[nH]ccc23)COC2CC1C2 (stereo not drawn) [AVI-4313]	0	38	0.19 and 0.2	0.19	1	38	Adenosine	1.2	1.2	–
OC1(CNc2ncnc3[nH]ccc23)CCOCC1 [AVI-4314]	0	30	0.15 and 0.16	0.15	1	30	Adenosine	1.2	1.2	–
O=S1(=O)CCCC(O)(CNc2ncnc3[nH]ccc23)C1 (stereo not drawn) [AVI-4317]	14	100	0.43 and 0.45	0.43	1	86	Adenosine	1.2	1.2	Comment [1]: High occupancy, use manual refinement, DMSO
CN(CC1(O)CCOCC1)c1ncnc2[nH]ccc12 [AVI-4318]	0	50	0.26 and 0.25	0.25	1	50	Adenosine	1.2	1.2	–
OC1(CNc2ncnc3[nH]ccc23)CCSCC1 [AVI-4319]	0	32	0.16 and 0.17	0.16	1	32	Adenosine	1.2	1.2	–
OC1(CNc2ncnc3[nH]ccc23)CC2CCC1CC2 (stereo not drawn) [AVI-4320]	0	28	0.14	0.14	1	28	Adenosine	1.1	1.1	–
OC1(CNc2ncnc3[nH]ccc23)CCCSC1 (stereo not drawn) [AVI-4322]	0	42	0.21	0.21	1	42	Adenosine	1.3	1.3	–
Cc1c[nH]c2ncnc(NCC3(O)CCC(O)CC3)c12 (stereo not drawn) [AVI-4329]	12	30	–	0.09	2	18	Adenosine	–	–	PanDDA run, DMSO background map: 1-BDC [1, 5]: 0.09 and 0.11; Pandda run, overall: Hit [1, 6]: TRUE; Pandda run, overall: Modeled [1, 6]: TRUE; Pandda run, overall: Modeling comment [1, 6]: Duplicate, not modeled; PanDDA run, DMSO background map: Hit [1, 5]: TRUE; PanDDA run, DMSO background map: Modeled [1, 5]: TRUE; IC50 ([2]; dose-response): > 1 mM
Cc1c[nH]c2ncnc(NCC3(O)CCC(C)(C)CC3)c12 [AVI-4330]	–	–	–	–	–	–	–	1.3	1.3	PanDDA run, DMSO background map: 1-BDC [1, 5]: 0.11; Pandda run, overall: Hit [1, 6]: TRUE; Pandda run, overall: Modeling comment [1, 6]: Weak density, not modeled; PanDDA run, DMSO background map: Hit [1, 5]: TRUE
Cc1c[nH]c2ncnc(NCC3(O)CCC(C)CC3)c12 (stereo not drawn) [AVI-4331]	0	54	–	0.27	1	54	Adenosine	1.2	1.2	Pandda run, overall: Hit ([1]; crystal soak 10 mM, P43 crystals, TRUE = ligand identified by PanDDA): TRUE; PanDDA run, DMSO background map: Hit [1, 4]: TRUE; PanDDA run, DMSO background map: 1-BDC [1, 4]: 0.27; PanDDA run, DMSO background map: 1-BDC [1, 5]: 0.23; Pandda run, overall: Hit [1, 6]: TRUE; Pandda run, overall: Modeling comment [1, 6]: Duplicate, not modeled; PanDDA run, DMSO background map: Hit [1, 5]: TRUE
CC(C)(CO)Nc1ncnc2[nH]ccc12 [AVI-5266]	16	40	0.12	0.12	1	24	–	1.1	–	X-ray crystal structure ([1]; X-ray crystal structure determined (TRUE)): TRUE; Binding site ([1]; site of ligand in X-ray crystal structure): Adenosine; Hill slope ([2]; SARS CoV-2 macrodomain HTRF assay, dose-response): 1.1; inhibition at 200 µM ([2]; Single dose, concentration 200 μM, read-out: Average % competition): 56%; inhibition at 200 µM ([2]; preliminary screen, compound at 200 μM, mean of 3-4 technical replicates, read-out: % competition in HTRF assay): 56%
CC1(C)CCN(c2ncnc3[nH]ccc23)C(CO)C1 (stereo not drawn) [AVI-5994]	0	46	0.23 and 0.27	0.23	2	46	Adenosine	1.2	1.2	Comment [1]: Weak density for open state of Phe132 loop
O[C@H]1CC[C@H]2CCN(c3ncnc4[nH]ccc34)[C@H]21 [AVI-5997]	12	70	0.28 and 0.29	0.29	1	58	Adenosine	1.2	1.2	–
OCC1C=CCCN1c1ncnc2[nH]ccc12 (stereo not drawn) [AVI-5998]	0	38	0.21 and 0.19	0.19	1	38	Adenosine	1.2	1.2	–
CC(C)(C)C1CCCN1c1ncnc2[nH]ccc12 (stereo not drawn) [AVI-6000]	0	14	0.07	0.07	1	14	Adenosine	–	–	IC50 ([2]; dose-response): > 1 mM
OCC1CC=CCN1c1ncnc2[nH]ccc12 (stereo not drawn) [AVI-6002]	18	50	0.21 and 0.16	0.16	1	32	Adenosine	1.3	1.3	–
OC1(CNc2ncnc3[nH]ccc23)CCCCC1 [AVI-6217]	16	60	0.22	0.22	1	44	Adenosine	1.1	1.1	–
